This passage reports IC50 results from patent US12240862B2, “Inhibitors of peptidylarginine deiminases” (Gilead Sciences, Inc., priority 2020, dated 2025).

In the assay the target is T1, human PAD4 (Homo sapiens, UniProt Q9UM07).
T1 construct: human PAD4 (NM_012387), A2P663, was PCR amplified; His-SUMO (N, cleaved yes); made in house; host or cells: E. coli BL21(DE3)
T1 sequence (Q9UM07 2-663): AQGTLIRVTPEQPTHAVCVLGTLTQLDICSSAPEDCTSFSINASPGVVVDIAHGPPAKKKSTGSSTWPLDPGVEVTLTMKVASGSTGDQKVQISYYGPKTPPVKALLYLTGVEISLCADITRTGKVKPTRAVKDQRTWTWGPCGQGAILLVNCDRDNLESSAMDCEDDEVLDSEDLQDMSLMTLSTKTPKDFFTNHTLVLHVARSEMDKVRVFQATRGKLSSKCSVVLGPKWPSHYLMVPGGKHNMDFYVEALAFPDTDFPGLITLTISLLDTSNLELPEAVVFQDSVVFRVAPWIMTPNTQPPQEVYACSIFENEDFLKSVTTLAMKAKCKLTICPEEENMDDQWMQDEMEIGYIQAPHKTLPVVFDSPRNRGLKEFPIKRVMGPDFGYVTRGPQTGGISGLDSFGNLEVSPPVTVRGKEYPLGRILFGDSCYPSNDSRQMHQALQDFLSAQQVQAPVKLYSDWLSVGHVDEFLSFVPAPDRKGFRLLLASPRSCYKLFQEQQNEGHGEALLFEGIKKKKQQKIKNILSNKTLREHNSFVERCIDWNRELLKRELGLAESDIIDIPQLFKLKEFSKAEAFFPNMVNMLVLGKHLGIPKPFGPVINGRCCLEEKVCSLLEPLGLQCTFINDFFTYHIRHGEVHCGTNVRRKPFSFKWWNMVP
Briefly: In vitro PAD4 BAEE biochemical assay. Particulars: human PAD4, BAEE substrate; 5 nM PAD4, 2 mM calcium chloride, 3 mM BAEE; geometric mean of multiple experiments. A digest of the protocol:
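Ammonia release from BAEE deimination monitored by o-phthalaldehyde amine coupling (1 h, 25 °C) after EDTA stop. Final conditions: 5 nM tag-free recombinant human PAD4 (E. coli), 2 mM CaCl2, 3 mM BAEE, pH 7.6 MOPS with DTT; 30 min compound preincubation, then 2 h reaction at 25 °C.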
The term IC50 denotes the concentration needed to halve the response being measured. With `COc1cc(C(=O)N2[C@H]3CC[C@@H]2[C@H](N)[C@H](O)C3)cc2nc(-c3cc4ccc(N(C(F)F)S(C)(=O)=O)nc4n3CC3CC3)c(C)n12` [Example 416, ~{N}-[2-[7-[(1~{R},2~{S},3~{R}, 5~{S})-2-amino-3-hydroxy-8-azabicyclo[3.2.1]octane-8-carbonyl]-5-methoxy-3-methylimidazo[1,2-a]pyridin-2-yl]-1-(cyclopropylmethyl)pyrrolo [2,3-b]pyridin-6-yl]-~{N}-(difluoromethyl) methanesulfonamide], the IC50 turned out to be 337 nM.
As for `COc1cc(C(=O)N[C@@H]2CC[C@@H]3CC[C@H]2N3)cc2nc(-c3cc4ccc(N(C(F)F)S(C)(=O)=O)nc4n3CC3CC3)c(C)n12` [Example 299, ~{N}-[(1~{R},2~{R}, 5~{S})-8-azabicyclo [3.2.1]octan-2-yl]-2-[1-(cyclopropylmethyl)-6-[difluoromethyl (methylsulfonyl)amino]pyrrolo[2,3-b]pyridin-2-yl]-5-methoxy-3-methylimidazo[1,2-a]pyridine-7-carboxamide], the figure is 8050 nM.
Turning to `COc1cc(C(=O)N2[C@H]3CC[C@@H]2[C@H](N)C3)cc2nc(-c3cc4ccc([C@@H](C)NC(=O)NC5CC6(CC6)C5)nc4n3CC3CC3)c(C)n12` [Example 204, 1-[(1~{R})-1-[2-[7-[(1~{R},2~{R},4~{S})-2-amino-7-azabicyclo[2.2.1]heptane-7-carbonyl]-5-methoxy-3-methylimidazo [1,2-a]pyridin-2-yl]-1-(cyclopropylmethyl)pyrrolo [2,3-b]pyridin-6-yl]ethyl]-3-spiro[2.3]hexan-5-ylurea], the 50% inhibitory concentration (IC50) came out at 30.1 nM.
The result for `CCc1ccc2cc(-c3nc4cc(C(=O)N5[C@H]6CC[C@@H]5[C@H](N)C6)cc(OC)n4c3C)n(CCC(C)(C)C#N)c2n1` [Example 508, 4-[2-[7-[(1~{R},2~{R}, 4~{S})-2-amino-7-azabicyclo[2.2.1]heptane-7-carbonyl]-5-methoxy-3-methylimidazo[1,2-a]pyridin-2-yl]-6-ethylpyrrolo [2,3-b]pyridin-1-yl]-2,2-dimethylbutanenitrile] reads 277 nM; that for `CC(C)c1c(-c2cc3ccc(N(C(F)F)S(C)(=O)=O)nc3n2CC2CC2)nc2cc(C(=O)N3[C@@H]4CC[C@@H](N)[C@H]3CC4)ccn12` [Example 434], 3410 nM.
For the compound `COc1cc(C(=O)N2[C@H]3CC[C@@H]2[C@H](N)C3)cc2nc(-c3cc4ccc(C5=CC(=O)NCC5)nc4n3CC3CC3)c(C)n12` [Example 561, 4-[2-[7-[(1~{R},2~{R}, 4~{S})-2-amino-7-azabicyclo[2.2.1]heptane-7-carbonyl]-5-methoxy-3-methylimidazo[1,2-a]pyridin-2-yl]-1-(cyclopropylmethyl)pyrrolo[2,3-b]pyridin-6-yl]-2,3-dihydro-1~{H}-pyridin-6-one], the IC50 is 193 nM.
As for `CCc1c(-c2cc3ccc(N(C(F)F)S(C)(=O)=O)nc3n2CC2CC2)nc2cc(C(=O)N3CCC[C@@H](N)C3)cc(OC)n12` [Example 399, ~{N}-[2-[7-[(3~{R})-3-aminopiperidine-1-carbonyl]-3-ethyl-5-methoxyimidazo[1,2-a]pyridin-2-yl]-1-(cyclopropylmethyl)pyrrolo [2,3-b]pyridin-6-yl]-~{N}-(difluoromethyl) methanesulfonamide], the figure is 285 nM; as for “~{N}-[(1~{R})-1-[2-[7- [(1~{R},2~{R},4~{S})-2- amino-7- azabicyclo[2.2.1]heptane-7- carbonyl]- 5-methoxy-3-methylimidazo [1,2-a]pyridin-2-yl]-1- (cyclopropylmethyl)pyrrolo [2,3-b]pyridin-6-yl]ethyl]- 3,3-dimethylcyclobutane-1- carboxamide [Example 71]”, 63.4 nM.
